Test results as given in patent publication US4396613A, “23-Ester derivatives of DMT and method of using same” (Eli Lilly and Company, priority 1981, dated 1983).
In brackets after ≈: the same amount, converted by molar mass.

Experiments:
Format in all cases: cell-based
[1] = tested on: Haemophilus influenzae Holt; experiment: standard agar-dilution assay (MIC); conditions: ampicillin-sensitive strain, unit assumed
Description: (§1) The MIC's in Table II were determined by standard agar-dilution assays. The MIC's in Table III were obtained using a conventional broth-dilution microtiter test.

[2] = tested on: Streptococcus pyogenes C203; experiment: standard agar-dilution assay (MIC); conditions: unit assumed
Description: as §1

[3] = tested on: Staphylococcus aureus S13E; experiment: standard agar-dilution assay (MIC); conditions: unit assumed
Description: as §1

[4] = tested on: Staphylococcus aureus X1.1; experiment: standard agar-dilution assay (MIC); conditions: unit assumed
Description: as §1

[5] = tested on: Streptococcus Group D X66; experiment: standard agar-dilution assay (MIC); conditions: unit assumed
Description: as §1

[6] = tested on: Haemophilus influenzae R252; experiment: standard agar-dilution assay (MIC); conditions: Haemophilus influenzae R252, ampicillin-resistant strain, unit assumed
Description: as §1

[7] = tested on: Streptococcus Group 9960; experiment: standard agar-dilution assay (MIC); conditions: unit assumed
Description: as §1

[8] = tested on: Staphylococcus epidermidis EPI1; experiment: standard agar-dilution assay (MIC); conditions: unit assumed
Description: as §1

[9] = tested on: Staphylococcus epidermidis EPI2; experiment: standard agar-dilution assay (MIC); conditions: unit assumed
Description: as §1

[10] = tested on: Pasteurella multocida 60A; experiment: conventional broth-dilution microtiter test (MIC); conditions: avian isolate, unit assumed
Description: as §1

[11] = tested on: Streptococcus sp. 80; experiment: conventional broth-dilution microtiter test (MIC); conditions: unit assumed
Description: as §1

[12] = tested on: Mycoplasma gallisepticum; experiment: conventional broth-dilution microtiter test (MIC); conditions: unit assumed
Description: as §1

[13] = tested on: Pasteurella multocida 17E; experiment: conventional broth-dilution microtiter test (MIC); conditions: bovine isolate, unit assumed
Description: as §1

[14] = tested on: Mycoplasma hyorhinis; experiment: conventional broth-dilution microtiter test (MIC); conditions: unit assumed
Description: as §1

[15] = tested on: Mycoplasma synoviae; experiment: conventional broth-dilution microtiter test (MIC); conditions: unit assumed
Description: as §1

[16] = tested on: Staphylococcus aureus; experiment: conventional broth-dilution microtiter test (MIC); conditions: unit assumed
Description: as §1

[17] = tested on: Staphylococcus aureus V41; experiment: standard agar-dilution assay (MIC); conditions: Staphylococcus aureus V41, penicillin-resistant strain, unit assumed
Description: as §1
^b Penicillinresistant strain

[18] = tested on: Staphylococcus aureus X400; experiment: standard agar-dilution assay (MIC); conditions: Staphylococcus aureus X400, methicillin-resistant strain, unit assumed
Description: as §1
^c Methicillinresistant-strain

[19] = tested on: Streptococcus pneumoniae Park I; conditions: agar dilution, unit assumed
Description: as §1

| SMILES | MIC [1] | MIC [2] | MIC [3] | MIC [4] | MIC [5] | MIC [6] | MIC [7] | MIC [8] | MIC [9] | MIC [10] | MIC [11] | MIC [12] | MIC [13] | MIC [14] | MIC [15] | MIC [16] | MIC [17] | MIC [18] | MIC [19] |
| --- | --- | --- | --- | --- | --- | --- | --- | --- | --- | --- | --- | --- | --- | --- | --- | --- | --- | --- | --- |
| CCC1OC(=O)CC(O)C(C)C(OC2OC(C)C(OC3CC(C)(O)C(O)C(C)O3)C(N(C)C)C2OC(C)=O)C(CC=O)CC(C)C(=O)C=CC(C)=CC1COC(=O)C(C)(C)C (stereo not shown) [Compound 8] | 16 µg/mL (≈ 18.4 µM) | 0.25 µg/mL (≈ 0.288 µM) | 0.5 µg/mL (≈ 0.576 µM) | 0.5 µg/mL (≈ 0.576 µM) | 0.5 µg/mL (≈ 0.576 µM) | 4 µg/mL (≈ 4.61 µM) | 0.5 µg/mL (≈ 0.576 µM) | 0.5 µg/mL (≈ 0.576 µM) | 1 µg/mL (≈ 1.15 µM) | 12.5 µg/mL (≈ 14.4 µM) | > 0.78 µg/mL | 0.39 µg/mL (≈ 0.449 µM) | 12.5 µg/mL (≈ 14.4 µM) | 3.12 µg/mL (≈ 3.59 µM) | 0.39 µg/mL (≈ 0.449 µM) | 3.12 µg/mL (≈ 3.59 µM) | 0.5 µg/mL (≈ 0.576 µM) | 1 µg/mL (≈ 1.15 µM) | 0.06 µg/mL (≈ 0.0691 µM) |
| CCC1OC(=O)CC(O)C(C)C(OC2OC(C)C(OC3CC(C)(O)C(O)C(C)O3)C(N(C)C)C2O)C(CC=O)CC(C)C(=O)C=CC(C)=CC1COC(=O)NCCN1CCOCC1 (stereo not shown) [Compound 29] | 16 µg/mL (≈ 17.8 µM) | 0.5 µg/mL (≈ 0.557 µM) | 2 µg/mL (≈ 2.23 µM) | 1 µg/mL (≈ 1.11 µM) | 2 µg/mL (≈ 2.23 µM) | 16 µg/mL (≈ 17.8 µM) | 2 µg/mL (≈ 2.23 µM) | 1 µg/mL (≈ 1.11 µM) | 2 µg/mL (≈ 2.23 µM) | 25 µg/mL (≈ 27.8 µM) | 0.78 µg/mL (≈ 0.868 µM) | 0.39 µg/mL (≈ 0.434 µM) | 12.5 µg/mL (≈ 13.9 µM) | 6.25 µg/mL (≈ 6.96 µM) | 1.56 µg/mL (≈ 1.74 µM) | 1.56 µg/mL (≈ 1.74 µM) | 1 µg/mL (≈ 1.11 µM) | 4 µg/mL (≈ 4.45 µM) | 0.125 µg/mL (≈ 0.139 µM) |
| CCC1OC(=O)CC(O)C(C)C(OC2OC(C)C(OC3CC(C)(O)C(O)C(C)O3)C(N(C)C)C2OC(C)=O)C(CC=O)CC(C)C(=O)C=CC(C)=CC1COC(=O)CCc1ccccc1 (stereo not shown) [Compound 13] | 2 µg/mL (≈ 2.18 µM) | 0.25 µg/mL (≈ 0.273 µM) | 0.5 µg/mL (≈ 0.546 µM) | 0.25 µg/mL (≈ 0.273 µM) | 0.5 µg/mL (≈ 0.546 µM) | 2 µg/mL (≈ 2.18 µM) | 0.5 µg/mL (≈ 0.546 µM) | 1 µg/mL (≈ 1.09 µM) | 1 µg/mL (≈ 1.09 µM) | 12.5 µg/mL (≈ 13.6 µM) | ≤ 0.048 µg/mL | ≤ 0.048 µg/mL | 1.56 µg/mL (≈ 1.7 µM) | 3.12 µg/mL (≈ 3.41 µM) |  | 0.78 µg/mL (≈ 0.851 µM) | 1 µg/mL (≈ 1.09 µM) | 1 µg/mL (≈ 1.09 µM) | 0.015 µg/mL (≈ 0.0164 µM) |
| CCCCCCCC(=O)OCC1C=C(C)C=CC(=O)C(C)CC(CC=O)C(OC2OC(C)C(OC3CC(C)(O)C(O)C(C)O3)C(N(C)C)C2OC(C)=O)C(C)C(O)CC(=O)OC1CC (stereo not shown) [Compound 7] |  | 0.5 µg/mL (≈ 0.549 µM) | 2 µg/mL (≈ 2.2 µM) | 2 µg/mL (≈ 2.2 µM) | 2 µg/mL (≈ 2.2 µM) |  | 2 µg/mL (≈ 2.2 µM) | 2 µg/mL (≈ 2.2 µM) | 4 µg/mL (≈ 4.39 µM) | > 50 µg/mL | 1.56 µg/mL (≈ 1.71 µM) | 1.56 µg/mL (≈ 1.71 µM) | > 50 µg/mL | 6.25 µg/mL (≈ 6.87 µM) | 12.5 µg/mL (≈ 13.7 µM) | 1.56 µg/mL (≈ 1.71 µM) | 2 µg/mL (≈ 2.2 µM) | 4 µg/mL (≈ 4.39 µM) | 0.5 µg/mL (≈ 0.549 µM) |
| CCC1OC(=O)CC(O)C(C)C(OC2OC(C)C(OC3CC(C)(O)C(O)C(C)O3)C(N(C)C)C2OC(C)=O)C(CC=O)CC(C)C(=O)C=CC(C)=CC1COC(=O)Cc1ccccc1 (stereo not shown) [Compound 9, 2'-O-Acetyl-23-O-phenylacetyl-DMT] | 4 µg/mL (≈ 4.43 µM) | 0.125 µg/mL (≈ 0.139 µM) | 0.5 µg/mL (≈ 0.554 µM) | 0.5 µg/mL (≈ 0.554 µM) | 0.5 µg/mL (≈ 0.554 µM) | 4 µg/mL (≈ 4.43 µM) | 0.25 µg/mL (≈ 0.277 µM) | 0.5 µg/mL (≈ 0.554 µM) | 0.5 µg/mL (≈ 0.554 µM) | 6.25 µg/mL (≈ 6.93 µM) | ≤ 0.048 µg/mL | ≤ 0.048 µg/mL | 3.12 µg/mL (≈ 3.46 µM) | 0.78 µg/mL (≈ 0.865 µM) |  | 0.195 µg/mL (≈ 0.216 µM) | 0.5 µg/mL (≈ 0.554 µM) | 0.5 µg/mL (≈ 0.554 µM) | 0.015 µg/mL (≈ 0.0166 µM) |
| CCC1OC(=O)CC(O)C(C)C(OC2OC(C)C(OC3CC(C)(O)C(O)C(C)O3)C(N(C)C)C2OC(C)=O)C(CC=O)CC(C)C(=O)C=CC(C)=CC1COC(=O)Cc1ccc(Cl)cc1 (stereo not shown) [Compound 14, 2'-O-Acetyl-23-O-(p-chlorophenylacetyl)-DMT] | 4 µg/mL (≈ 4.27 µM) | 0.5 µg/mL (≈ 0.534 µM) | 1 µg/mL (≈ 1.07 µM) | 0.5 µg/mL (≈ 0.534 µM) | 1 µg/mL (≈ 1.07 µM) | 4 µg/mL (≈ 4.27 µM) | 1 µg/mL (≈ 1.07 µM) | 1 µg/mL (≈ 1.07 µM) | 2 µg/mL (≈ 2.14 µM) | 6.25 µg/mL (≈ 6.67 µM) | 0.78 µg/mL (≈ 0.833 µM) | < 0.048 µg/mL | 3.12 µg/mL (≈ 3.33 µM) | 6.25 µg/mL (≈ 6.67 µM) | 0.78 µg/mL (≈ 0.833 µM) | 0.39 µg/mL (≈ 0.416 µM) | 2 µg/mL (≈ 2.14 µM) | 2 µg/mL (≈ 2.14 µM) |  |
